PubChem BioAssay (NCI)
“And” between values parts separate entries of the source, which are not always exact repeats. Equal entries are not always repeated.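 96-well plates; 48 h exposure; 5 concentrations. Endpoints by linear interpolation between flanking doses. Not reached: highest tested concentration assigned. Abbreviation: GI50, concentration required for 50% inhibition of growth. The concentration for full growth arrest is given as TGI.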

Tests used:
Experiment in all cases: growth of human tumour cells (NCI), 48 h
ACHN renal = tested on: ACHN renal
SF-295 CNS = tested on: SF-295 CNS
COLO 205 colon = tested on: COLO 205 colon
SF-268 CNS = tested on: SF-268 CNS
LOX IMVI melanoma = tested on: LOX IMVI melanoma
SK-MEL-2 melanoma = tested on: SK-MEL-2 melanoma
NCI-H226 lung = tested on: NCI-H226 lung
KM12 colon = tested on: KM12 colon
TK-10 renal = tested on: TK-10 renal
UO-31 renal = tested on: UO-31 renal

Compound	GI50 (ACHN renal)	TGI (ACHN renal)	GI50 (SF-295 CNS)	TGI (SF-295 CNS)	GI50 (COLO 205 colon)	TGI (COLO 205 colon)	GI50 (SF-268 CNS)	TGI (SF-268 CNS)	GI50 (LOX IMVI melanoma)	TGI (LOX IMVI melanoma)	GI50 (SK-MEL-2 melanoma)	TGI (SK-MEL-2 melanoma)	GI50 (NCI-H226 lung)	TGI (NCI-H226 lung)	GI50 (KM12 colon)	TGI (KM12 colon)	GI50 (TK-10 renal)	TGI (TK-10 renal)	GI50 (UO-31 renal)	TGI (UO-31 renal)
COc1cc2oc(-c3cccc(C(=O)Nc4ccc(Cl)cc4)c3)cc(=O)c2c(OC)c1OC	3.17 µM	> 100 µM	1.47 µM	3.51 µM	1.47 µM	4.04 µM	4.66 µM	> 100 µM	0.413 µM	> 100 µM	2.96 µM	9.22 µM	2.24 µM	94.8 µM	2.37 µM	> 100 µM	3.22 µM	> 100 µM	2.85 µM	> 100 µM
O=S1(=O)N2CN3CN(C2)CN1C3		283 µM		63.3 µM		> 31.6 µM and 73.8 µM	31.8 µM	> 87.5 µM and 133 µM	25.2 µM	> 79.1 µM and 67.5 µM		473 µM		188 µM		306 µM		692 µM		410 µM
CC1CC2C3CCC4=CC(=O)C=CC4(C)C3(F)C(O)CC2(C)C1(O)C(=O)COP(=O)(O)O (configuration not stated)	> 500 µM	> 500 µM	> 500 µM	> 500 µM	> 500 µM	> 500 µM	> 500 µM	> 500 µM	> 500 µM	> 500 µM	> 500 µM	> 500 µM	> 500 µM	> 500 µM	> 500 µM	> 500 µM	> 500 µM	> 500 µM	> 500 µM	> 500 µM
CN(C)CCNC(=O)c1cccc2c1nc(-c1ccc(F)cc1)c1ccccc12		11.4 µM		19.3 µM		14.3 µM		21.8 µM		5.36 µM		22.3 µM		9.31 µM		19.3 µM		16.6 µM		4.51 µM
Cc1ccccc1N=Nc1c(O)ccc2ccccc12		> 100 µM		> 100 µM		> 100 µM		> 100 µM		> 100 µM		> 100 µM		> 100 µM		> 100 µM		> 100 µM		> 100 µM
C#Cc1cccc(Nc2ncnc3cc(NC(=O)CCl)ccc23)c1	2.14 µM	5.66 µM	3.51 µM	6.95 µM	3.62 µM	7.45 µM	3.3 µM	8.55 µM	0.74 µM	2.97 µM	3.82 µM	7.77 µM	4.72 µM	11.6 µM	3.29 µM	7.13 µM	1.86 µM	5.98 µM	2.55 µM	5.6 µM
Cc1nc(N)nc(N)c1CCCCc1ccc(N)cc1		59.2 µM		14.2 µM		28 µM		17.3 µM		14.8 µM		21.3 µM		56.1 µM		21.7 µM		28.8 µM		> 100 µM
CCOC(=O)[C@@H](C)C[C@H](Cc1ccccc1)NC(=O)c1csc([C@@H](C[C@H](C(C)C)N(C)C(=O)[C@@H](NC(=O)[C@H]2CCCCN2C)C(C)(C)CC)OC(C)=O)n1	0.00225 µM	> 14.1 µM	< 0.00167 µM	1.87 µM	< 0.00167 µM	0.003 µM	0.00278 µM	> 12.8 µM	< 0.00167 µM	6.08 µM	< 0.00167 µM	> 16.7 µM	< 0.00167 µM	0.0336 µM	< 0.00167 µM	> 16.7 µM	0.0418 µM	> 16.7 µM	0.0132 µM	14.1 µM
COc1ccc(-c2cc(-c3ccc(Nc4nc(Nc5ccccc5)nc(Nc5ccc(Cl)cc5)n4)cc3)nc(N)n2)cc1	16.4 µM	> 50 µM	7.92 µM	25.8 µM	2.29 µM	16.7 µM	13.3 µM	46.8 µM	11.1 µM	39 µM	13.1 µM	44.1 µM	12.9 µM	> 50 µM	4.72 µM	45.1 µM	14.2 µM	> 50 µM	8.13 µM	> 50 µM
Oc1ccc(Cl)cc1C(c1cc(Cl)ccc1O)C(Cl)(Cl)Cl	1.76 µM	4.11 µM	1.97 µM	4.76 µM	1.9 µM	3.82 µM	1.77 µM	3.41 µM	1.66 µM	3.22 µM	2.12 µM	5.36 µM	1.94 µM	4.81 µM	1.73 µM	3.34 µM	2.27 µM	5.01 µM	1.5 µM	4.78 µM
O=C1CC2OCC=C3CN4CCC56c7ccccc7N1C5C2C3CC46O (configuration not stated)		> 100 µM		> 100 µM		> 100 µM		> 100 µM		> 100 µM		> 100 µM		> 100 µM		> 100 µM		> 100 µM		> 100 µM
C=C1C(=O)O[C@H]2[C@H]1CC/C(COC(=O)c1cc(OC)c(OC)c(OC)c1)=C\CC[C@@]1(C)O[C@@H]21	0.743 µM	2.02 µM	3.84 µM	15.8 µM	1.18 µM	3.09 µM	1.46 µM	3.42 µM	1.34 µM	2.73 µM	1.6 µM	3.63 µM	1.4 µM	3.63 µM	2.26 µM	5.82 µM	1.22 µM	2.7 µM	0.402 µM	1.7 µM
CCOC(=O)CSc1cc(Cl)c(C)cc1S(=O)(=O)/N=C(/N=C/c1ccc([N+](=O)[O-])s1)NNC	17 µM	39.9 µM	16.1 µM	47 µM	16 µM	34.8 µM	29.8 µM	> 100 µM	17.8 µM	31.6 µM	31 µM	59.1 µM	33.1 µM	75.8 µM	18.5 µM	42.2 µM	23 µM	67.6 µM	36.6 µM	> 100 µM
